Laboratory results as given in US5795882A, “Method of treating prostatic diseases using delayed and/or sustained release vitamin D formulations” (Bone Care International, Inc., priority 1996, dated 1998).
One block for each compound: values may come before it.

Columns and labels:
PC-3 = experiment: Inhibition of prostate cell proliferation, PC-3; assay type: cell-based, human; conditions: PC-3, 10^-11 to 10^-7 M, 6-7 days
Protocol: (§1) The cell lines, LNCaP and PC-3, which are derived from human prostate adenocarcinoma, are seeded in six-well tissue culture plates at a density of about 50,000 cells/plate. After the cells have attached and stabilized, about 2-3 days, the medium is replenished with medium containing vehicle or the active vitamin D analogue, 1α,24-(OH)2 D2, at concentrations from 10^-11 to 10^-7 M. Medium containing test analogue or vehicle is replaced every three days. After 6-7 days, the medium is removed, and the cells are rinsed, precipitated with cold 5% trichloroacetic acid, and washed with cold ethanol. The cells are solubilized with 0.2N sodium hydroxide, and the amount of DNA determined by standard procedures.
(§2) The procedure of Example 19 is repeated using the active vitamin D analogue 1α,24-(OH)2 D4, and the cell number is determined.
(§3) The procedure of Example 19 is repeated using the active vitamin D analogue 1α,25-(OH)2 D4, and the cell number is determined.

LNCaP [1] = experiment: Stimulation of prostate cell differentiation (PSA), LNCaP; assay type: cell-based, human; conditions: 10^-11 to 10^-7 M, 6-7 days
Protocol: Using the techniques of Skowronski et al., 132 Endocrinology (1993) 1952-1960 and 136 Endocrinology (1995) 20-26, both of which are incorporated herein by reference, cells of the cell line, LNCaP, which is derived from a human metastatic prostate adenocarcinoma and known to express PSA, are seeded in six-well tissue culture plates at a density of about 50,000 cells/plate. After the cells have attached and stabilized, about 2-3 days, the medium is replenished with medium containing vehicle or the active vitamin D analogue, 1α,24-(OH)2 D2, at concentrations from 10^-11 to 10^-7 M. After 6-7 days, the medium is removed and stored at -20° C. for prostate specific antigen (PSA) analysis.
The cells are rinsed, precipitated, and the amount of DNA determined by standard procedures. The cells are resuspended, and the cell number determined. PSA is measured by standard known methods.
The procedure of Example 22 is repeated except the active vitamin D analogue is 1α,24-(OH)2 D4.
The procedure of Example 22 is repeated except the active vitamin D analogue is 1α,25-(OH)2 D4.

LNCaP [2] = experiment: Inhibition of prostate cell proliferation, LNCaP; assay type: cell-based, human; conditions: 10^-11 to 10^-7 M, 6-7 days
Protocol: as §1, §2, §3

prostate VDR = molecular target: T1, prostate VDR (Homo sapiens, UniProt P11473); experiment: Prostate cell VDR binding; conditions: 0.01-100 nM versus 1 nM 3H-1α,25-(OH)2 D3, 16-20 hrs, 4° C.
T1 sequence (P11473 1-427): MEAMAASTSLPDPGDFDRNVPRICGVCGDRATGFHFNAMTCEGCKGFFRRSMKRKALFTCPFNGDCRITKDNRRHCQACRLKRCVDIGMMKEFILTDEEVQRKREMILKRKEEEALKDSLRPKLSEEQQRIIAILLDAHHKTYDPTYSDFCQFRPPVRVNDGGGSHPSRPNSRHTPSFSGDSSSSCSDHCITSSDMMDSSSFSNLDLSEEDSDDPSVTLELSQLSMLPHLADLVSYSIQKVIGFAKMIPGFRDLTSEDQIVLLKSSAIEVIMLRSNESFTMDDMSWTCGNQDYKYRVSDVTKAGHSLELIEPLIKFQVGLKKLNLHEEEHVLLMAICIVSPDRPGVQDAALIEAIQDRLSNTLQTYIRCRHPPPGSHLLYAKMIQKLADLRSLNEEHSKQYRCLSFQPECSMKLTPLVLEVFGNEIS
Protocol: Prostate-derived cell lines are cultured to near confluence, washed and harvested by scraping. Cells are washed by centrifugation, and the cell pellet resuspended in a buffered salt solution containing protease inhibitors. The cells are disrupted by sonication while cooling on ice. The supernatant obtained from centrifuging the disrupted cells at 207,000×g for 35 min at 4° C. is assayed for binding. 200 μL of soluble extract, (1-2 mg protein/ml supernatant) is incubated with a 1 nM ^3 H-1α,25-(OH)2 D3 and increasing concentrations of 1α,24-(OH)2 -D2 (0.01-100 nM) for 16-20 hrs at 4° C. Bound and free hormones are separated with hydroxylapatite using standard procedures. Specific binding is calculated by subtracting nonspecific binding obtained in the presence of a 250-fold excess of nonradioactive 1α,25-(OH)2 D3 from the total binding measured.
The procedure of Example 16 is repeated using the active vitamin D analogue 1α,24-dihydroxyvitamin D4, and the specific binding is determined.
The procedure of Example 16 is repeated using the active vitamin D analogue 1α,25-dihydroxyvitamin D4, and the specific binding is determined.

[3] = system: prostate cancer cell lines; conditions: cited from earlier work
[4] = in vivo; cited from earlier work
malignant cells = conditions: cited from earlier work
leukemia cells = conditions: by inducing differentiation to nonmalignant macrophages; cited from earlier work
[5] = Comparison of oral bioavailability in rachitic rats (Example 5); assay type: in vivo, rat; conditions: rat, in vivo, 0.0015 mg/kg, 12 h after single oral dose 0.255 μg (approximately 1.5 μg/kg) in fractionated coconut oil, n=6, ± SD, ** p < 0.01 relative to 1α,25(OH)2 D3, read-out: Serum 1α,25-(OH)2 D3
Protocol: Three-week-old rats were maintained on a vitamin D-deficient diet containing normal levels of calcium and phosphorus for 3-6 weeks until marked hypocalcemia was observed. […] A control group received only the vehicle. For all treatment groups, blood was obtained at 12 hours postdosing, and analyzed for serum levels of the vitamin form.

[6] = Oral bioavailability of 1α,24-(OH)2 preD2 in normal rats (Example 2); assay type: in vivo, rat
Protocol: In this experiment, normal rats maintained on a normal diet were assigned randomly to treatment and control groups. The rats were orally administered single doses of 1α,24-(OH)2 preD2 in a fractionated coconut oil (FCO) (1.5 μg, which was approximately 7.5 μg/kg). The control group received only the vehicle. For both groups, blood was obtained at 6 hours postdosing and analyzed for serum levels of the vitamin form, 1α,24-dihydroxyvitamin D2.

[7] = In vitro thermal conversion of 1α-hydroxyprevitamin D to 1α-hydroxyvitamin D; assay type: physicochemical; conditions: in ethanol, 37° C.
Protocol: A series of experiments were conducted which address the in vitro conversion of previtamin to vitamin for three 1α-hydroxyprevitamin D's: 1α-hydroxyprevitamin D2, 1α,24-dihydroxyprevitamin D2 and 1α-hydroxyprevitamin D3. Each 1α-hydroxyprevitamin D was dissolved in ethanol, incubated at 37° C. in a water bath, and samples taken at two-hour intervals. An analytical HPLC separation was performed on each sample to quantify the thermal conversion of the previtamin to the vitamin form. The data collected were normalized to account for the presence of any vitamin form in the initial formulation (≤10%). The results are presented in FIG. 1 which is a plot of % previtamin versus time in hours. Linear regression lines were generated for each previtamin.

Vitamin D Receptor = molecular target: T2, Vitamin D Receptor (Homo sapiens, UniProt P11473); experiment: VDR competitive binding assay (Examples 6-8); conditions: in words; Examples 7 and 8 versus the vitamin form
T2 sequence (P11473 1-427): T1 sequence (P11473 1-427)

[8] = system: advanced androgen-independent prostate cancer; experiment: Clinical study in advanced androgen-independent prostate cancer; assay type: in vivo, human; conditions: for progression of metastatic disease (CAT scans, x-rays, bone scans): two years
Description: Patients with advanced androgen-independent prostate cancer participate in an open-labeled study of 1α,24-(OH)2 preD2. […] On admission to the study , patients begin a course of therapy with oral 1α,24-(OH)2 preD2 lasting 26 weeks, while discontinuing any previous use of calcium supplements, vitamin D supplements, and vitamin D hormone replacement therapies. During treatment, the patients are monitored at regular intervals for: (1) hypercalcemia, hyperphosphatemia, hypercalciuria, hyperphosphaturia and other toxicity; (2) evidence of changes in the progression of metastatic disease; and (3) compliance with the prescribed test drug dosage.
The study is conducted in two phases. During the first phase, the maximal tolerated dosage (MTD) of daily oral 1α,24-(OH)2 preD2 is determined by administering progressively higher dosages to successive groups of patients. All doses are administered in the morning before breakfast. The first group of patients is treated with 25 μg of 1α,24-(OH)2 preD2. Subsequent groups of patients are treated with 50, 75 and 100 μg/day. Dosing is continued uninterrupted for the duration of the study unless serum calcium exceeds 11.6 mg/dL or other toxicity of grade 3 or 4 is observed, in which case dosing is held in abeyance until resolution of the observed toxic effect(s) and then resumed at a level which has been decreased by 10.0 μg.
During the second phase, patients are treated with 1α,24-(OH)2 preD2 for 24 months at 0.5 and 1.0 times the MTD.
The study of Example 25 is repeated for the active vitamin D compound, 1α,25-(OH)2 D2 in DSR form.

affinity for prostate VDR (prostate VDR): strong affinity for prostate VDR
Compound: C=C1/C(=C\C=C2/CCC[C@]3(C)[C@@H]([C@H](C)/C=C/C(C)(O)C(C)C)CC[C@@H]23)C[C@@H](O)C[C@@H]1O (stereo partly drawn) [1α,24-(OH)2 D2, 1α,24-dihydroxyvitamin D2]
number of cells versus control cultures (PC-3): significantly fewer cells than the control cultures
PSA (mass of PSA/cell) versus control cultures (LNCaP [1]): significantly more PSA than control cultures
number of cells versus control cultures (LNCaP [2]): significantly fewer cells than the control cultures

affinity for prostate VDR (prostate VDR): strong affinity for prostate VDR
Compound: C=C1/C(=C\C=C2/CCC[C@]3(C)[C@@H]([C@H](C)CC[C@H](C)C(C)(C)O)CC[C@@H]23)C[C@@H](O)C[C@@H]1O [1α,25-(OH)2 D4, 1α,25-dihydroxyvitamin D4]
number of cells versus control cultures (PC-3): significantly fewer cells than the control cultures
PSA (mass of PSA/cell) versus control cultures (LNCaP [1]): significantly more PSA than control cultures
number of cells versus control cultures (LNCaP [2]): significantly fewer cells than the control cultures

Compound: C=C1/C(=C\C=C2/CCC[C@]3(C)[C@@H]([C@H](C)CCCC(C)(C)O)CC[C@@H]23)C[C@@H](O)C[C@@H]1O [1α,25-(OH)2 D3, 1α,25-dihydroxyvitamin D3]
antiproliferative and differentiating actions [3]: Antiproliferative and differentiating actions
risk of hypercalcemia limiting clinical use as anti-cancer agent [4]: precluded, or severely limited, by the risk of hypercalcemia
growth and differentiation of malignant cells (malignant cells): regulate growth and promote the differentiation of many malignant cells
antileukemic activity (leukemia cells): potent antileukemic activity
concentration at 12 h [5]: 0.327 ± 0.192 ng/mL

affinity for prostate VDR (prostate VDR): strong affinity for prostate VDR
Compound: C=C1/C(=C\C=C2/CCC[C@]3(C)[C@@H]([C@H](C)CCC(C)(O)C(C)C)CC[C@@H]23)C[C@@H](O)C[C@@H]1O (stereo partly drawn) [1α,24-(OH)2 D4, 1α,24-dihydroxyvitamin D4]
number of cells versus control cultures (PC-3): significantly fewer cells than the control cultures
PSA (mass of PSA/cell) versus control cultures (LNCaP [1]): significantly more PSA than control cultures
number of cells versus control cultures (LNCaP [2]): significantly fewer cells than the control cultures

Compound: CC1=C(/C=C\C2=CCC[C@]3(C)[C@@H]([C@H](C)/C=C/C(C)(O)C(C)C)CC[C@@H]23)C[C@@H](O)C[C@@H]1O (stereo partly drawn) [1α,24-(OH)2 preD2, 1α,24-dihydroxyprevitamin D2]
oral bioavailability (increased circulating 1α,24-(OH)2 D2) [6]: bioavailable
half-life [7]: 12.2 h
VDR binding affinity (Vitamin D Receptor): substantially less affinity for the receptor than does its vitamin form
bone pain associated with metastatic disease ([8]; patients treated with the MTD for at least six months): significantly diminished
circulating levels of 1α,25-(OH)2 D3 ([8]; patients, daily oral): suppressed, often to undetectable levels
levels of circulating 1α,24-(OH)2 D2 versus dosage ([8]; patients, daily oral): increase proportionately with the dosage administered
serum and urine calcium ([8]; patients, daily oral): elevated in a dose responsive manner
maximal tolerated dosage (MTD) ([8]; patients, daily oral, first phase): above 20.0 μg/day
progression of metastatic disease (CAT scans, x-rays, bone scans) ([8]; higher dosage (1.0 times the MTD)): partial or complete remission
progression of metastatic disease (CAT scans, x-rays, bone scans) ([8]; lower dosage (0.5 times the MTD)): stable disease or partial remission

Compound: C=C1/C(=C\C=C2/CCC[C@]3(C)[C@@H]([C@H](C)CCCC(C)C)CC[C@@H]23)C[C@@H](O)C[C@@H]1O [1α-(OH)D3, 1α-hydroxyvitamin D3]
antileukemic activity (leukemia cells): potent antileukemic activity

Compound: CC1=C(/C=C\C2=CCC[C@]3(C)[C@@H]([C@H](C)CCC(C)(O)C(C)C)CC[C@@H]23)C[C@@H](O)C[C@@H]1O (stereo partly drawn) [1α,24-(OH)2 preD4, 1α,24-dihydroxyprevitamin D4]
VDR binding affinity (Vitamin D Receptor): substantially less affinity for the receptor than does its vitamin form
